Measurements from patent publication US6337397B1, “Pyrimidine derivatives and their salts, useful for making benzoxazepine derivatives” (Suntory Limited, priority 1995, dated 2002).
Like-named read-outs stand apart in the source and are kept apart here.

Assays:
male Wistar rats = assay: Anticonflict action, NaCl-Lick conflict method; format: in vivo; settings: Rattus norvegicus, po, 1 hour before the test; number of licks in 5 minutes of 2% saline; rats deprived of water for 48 hours; read-out: Minimum effective dosage
Protocol: The anticonflict action of the compounds of the general formulae (I), (II), and (III) was evaluated in accordance with the NaCl-Lick conflict method of Tanga et al. (Pharmacol., Biochem., Behav., vol. 32, pp. 773-776, 1989). That is, six-week old male Wistar rats in groups of six to 10 were deprived of water for 48 hours and placed in an experimental apparatus placed in a soundproof box (apparatus made of acrylic resin, 20×20×30 cm, provided with a drinking outlet having a diameter of 1 cm at height of 8 cm from the floor, designed to be able to measure the number of drops per unit hour by a drinkometer), and the anticonflict action of the medicament was evaluated using as an indicator the number of drops (number of licks) in 5 minutes from the start of drinking of 2% saline. The tested medicament was orally administered in an amount of 0.2 ml/100 g body weight 1 hour before the start of the test.

[1] = molecular target: T1, serotonin 5-HT1A receptor (Rattus norvegicus, UniProt P19327); assay: Affinity with serotonin receptor, [3H]8-OH-DPAT binding; set-up: species or system male Wistar rats; settings: for D2/5-HT1A: ratio of IC50 (D2) to IC50 (5-HT1A)
T1 construct: the hippocampuses extracted from male Wistar rats were homogenized; from tissue; host or cells: rat hippocampus membrane homogenate
T1 sequence (P19327 1-422): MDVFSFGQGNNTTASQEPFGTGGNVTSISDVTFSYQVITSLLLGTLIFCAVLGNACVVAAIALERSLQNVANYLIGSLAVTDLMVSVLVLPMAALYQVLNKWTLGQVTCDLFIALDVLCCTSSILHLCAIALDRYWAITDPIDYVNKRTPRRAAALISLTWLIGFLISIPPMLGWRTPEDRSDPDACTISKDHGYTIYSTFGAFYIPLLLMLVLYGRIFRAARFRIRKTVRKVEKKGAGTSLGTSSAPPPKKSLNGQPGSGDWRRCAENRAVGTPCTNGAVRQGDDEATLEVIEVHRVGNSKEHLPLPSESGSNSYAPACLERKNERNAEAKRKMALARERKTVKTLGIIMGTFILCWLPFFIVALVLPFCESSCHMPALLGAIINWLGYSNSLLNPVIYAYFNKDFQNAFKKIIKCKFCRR
Protocol: The affinity of the compounds of the general formulas (I), (II), and (III) with a serotonin receptor was evaluated in accordance with the method of S. T. Peuroutka et al. (J. Neurochem., vol. 47, pp. 529-540, 1986). That is, the hippocampuses extracted from male Wistar rats were homogenized while adding 50 mM tris-phosphate buffer (pH 7.7). The homogenate was centrifuged at […] and 40000×g for 10 minutes. The same buffer was added to the obtained precipitate, then this was homogenized again and was similarly centrifuged to obtain the precipitate. This homogenization-centrifugation operation was repeated two times to obtain a final precipitate to which was then added 10 uM of N-methyl-N-2-propynylbenzylamine (Pargyline), 4 mM of calcium chloride, and 0.1% ascorbic acid contained in a 50 mM tris-phosphate buffer (ph 7.7). This was then homogenized to prepare the serotonin receptor.
For the binding experiment, 0.4 nM of [3H]2-di-n-propylamino-8-hydroxy-1,2,3,4-tetrahydronapthalene (8-DPAT; 8-hydroxy-N,N-dipropyl-2-aminotetetrilin) was used, various concentrations of test samples were added to a system of 0.25 mg/ml of protein or a total of 0.25 ml, and these were incubated at 25° C. for 30 minutes. A Whatman GF/C filter was used to filter each of the reaction solutions, then the filter was washed by 20 mM tris-phosphate buffer (pH 7.7). The serotonin receptor was trapped by the filter and the radio activity of the 8-OH-DAPT bonded to it was measured to find the degree of binding. The 50% inhibiting concentration of binding affinity (IC50) was calculated from the degrees of binding in the various sample concentrations. […] The IC50 values of typical compounds are shown together with the IC50 values with respect to the dopamine D2 receptor.

dopamine D2 receptor = molecular target: T2, dopamine D2 receptor (Rattus norvegicus, UniProt P61169); assay: Affinity with dopamine D2 receptor, [3H]Raclopride binding; set-up: species or system male Wistar rats; settings: 1.0 nM [3H]Raclopride, rat corpus striatum preparation, 25° C., 60 minutes
T2 construct: the corpus striatums excised from male Wistar rats were homogenized; from tissue; host or cells: rat corpus striatum membrane homogenate
Protocol: The affinity of the compounds of the general formulas (I), (II), and (III) with a dopamine D2 receptor was evaluated in accordance with the method of Kakohler et al. (Biochem. Pharmacol., vol. 34, pp. 2251-2259, 1985). That is, the corpus striatums excised from male Wistar rats were homogenized with the addition of 120 mM sodium chloride, 5 mM potassium chloride, 2 mM calcium chloride, 1 mM magnesium chloride, and 0.01% ascorbic acid contained in 50 mM tris-phosphate buffer (pH 7.7). The homogenate was centrifuged at […] and 35000×g for 10 minutes. The same buffer was added to the resultant precipitate,then this was homogenized again and was similarly centrifuged to obtain the precipitate. The same buffer was added to this precipitate which was then again homogenized to prepare the dopamine D2 receptor.
For the binding experiment, use was made of 1.0 nM of [3H]3,5-dichloro-N-[(1-ethyl-2-pyrrolidinyl)methyl]-6-hydroxy-o-anisamide (Raclopride), various concentrations of test samples were added to a system of 0.34 mg/ml of protein or a total of 0.25 ml, incubation was performed at 25° C. for 60 minutes, then the radioactivity was measured in the same way as in the Evaluation Example 1 to find the degree of binding.
The 50% inhibiting concentration of binding affinity (IC50) was calculated from the degrees of binding at various concentrations of the added samples. […] The IC50 values of typical compounds are shown together with the IC50 values for the serotonin receptor.

Wistar male rats = assay: Ischemic brain tissue damage, transient right middle cerebral artery occlusion (MCAO) model; format: in vivo; settings: Rattus norvegicus, sc, 240 h; s.c., immediately after occlusion; 60 minutes occlusion; brain tissue damage 10 days after restart of blood flow (number of benzodiazepine bindings); read-out: Minimum effective dosage
Protocol: The evaluation of the efficacy on ischemic brain damage of the compounds of the general formulae (I), (II), and (III) was performed using the transient right middle cerebral artery occlusion (MCAO) model of Koizumi et al. (Jap. J. Stroke, vol. 8, pp. 1 to 8, 1986). That is, 10 to 11 week old Wistar male rats were used and the right middle cerebral artery was temporarily obstructed for 60 minutes. 10 days after the restart of the blood flow, the brains were excised and the degree of brain tissue damage of the cerebral cortex and corpus striatum of the obstructed side were evaluated by the damage marker of the number of benzodiazepine bindings. The tested drugs were dissolved in physiological saline and administered subcutaneously at the backs of the rats immediately after the right middle cerebral artery occlusion. As a control, physiological saline of […] body weight was similarly administered.

[2] = 0.4 nM [3H]8-OH-DPAT, rat hippocampus preparation, 25° C., 30 minutes, read-out: IC50 (5-HT1A)

T2 sequence (P61169 whole entry): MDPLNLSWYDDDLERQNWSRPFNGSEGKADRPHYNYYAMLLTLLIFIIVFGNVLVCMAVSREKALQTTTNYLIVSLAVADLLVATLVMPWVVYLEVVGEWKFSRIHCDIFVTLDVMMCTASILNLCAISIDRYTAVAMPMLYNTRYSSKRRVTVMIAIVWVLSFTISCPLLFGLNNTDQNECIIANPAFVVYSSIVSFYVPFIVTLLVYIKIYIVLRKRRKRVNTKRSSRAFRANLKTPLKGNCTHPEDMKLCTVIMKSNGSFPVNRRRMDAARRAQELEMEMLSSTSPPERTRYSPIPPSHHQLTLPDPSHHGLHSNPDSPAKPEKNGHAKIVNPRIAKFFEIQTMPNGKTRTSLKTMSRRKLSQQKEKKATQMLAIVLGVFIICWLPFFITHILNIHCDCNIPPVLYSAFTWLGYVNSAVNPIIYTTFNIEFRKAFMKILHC

Row | SMILES | minimal effective dose (male Wistar rats) [mg/kg] | IC50 [1, 2] [nM] | D2/5-HT1A [1] | IC50 (dopamine D2 receptor) [nM] | minimal effective dose (Wistar male rats) [mg/kg] | IC50 [1] [nM]
1 | CCC1=COc2ccccc2C(=O)N1CCCCN1CCN(c2ccccn2)CC1 [Example 36, 4,5-dihydro-3-ethyl-4-(4-(4-(2-pyridyl)piperazin-1-yl)butyl)-1,4-benzoxazepin-5-one] | 30 | – | – | – | – | –
2 | CC1=COc2ccc(F)cc2C(=O)N1CCCCN1CCN(c2cccc(Cl)n2)CC1 [Example 41, 4-(4-(4-(2-chloropyridin-6-yl)piperazin-1-yl)butyl)-4,5-dihydro-7-fluoro-3-methyl-1,4-benzoxazenin-5-one] | 10 | 1.7 | 156 | 266 | – | –
3 | O=C1c2ccccc2OC=C(Cl)N1CCCCN1CCN(c2ccccn2)CC1 [Example 46, 3-chloro-4,5-dihydro-4-(4-(4-(2-pyridyl)piperazin-1-yl)butyl)-1,4-benzoxazepin-5-one] | 10 | 0.77 | 67 | 51 | 0.3 | –
4 | O=C1c2ccccc2OC=C(Cl)N1CCCCN1CCN(c2ncnc3ccccc23)CC1 [Example 47, 3-chloro-4,5-dihydro-4-(4-(4-(4-quinazolyl)piperazin-1-yl)butyl)-1,4-benzoxazepin-5-one] | – | 3.8 | 366 | 1390 | – | –
5 | O=C1c2ccc(Cl)cc2OC=C(Cl)N1CCCCN1CCN(c2ccccn2)CC1 [Example 48, 3,8-dichloro-4,5-dihydro-4-(4-(4-(2-pyridyl)piperazin-1-yl)butyl)-1,4-benzoxazepin-5-one] | 30 | 1.2 | 194 | 233 | 1 | –
6 | Cc1ccc2c(c1)C(=O)N(CCCCN1CCN(c3ncccn3)CC1)C(Cl)=CO2 [Example 49, 3-chloro-4,5-dihydro-7-methyl-4-(4-(4-(2-pyrimidinyl)-piperazin-1-yl)butyl)-1,4-benzoxazepin-5-one] | – | 0.88 | 460 | 405 | – | –
7 | CC1=COc2ccccc2C(=O)N1CCCCN1CC=C(c2ncccn2)CC1 [Example 53, 4,5-dihydro-3-methyl-4-(4-(4-(2-pyrimidinyl)-1,2,5,6-tetrahydropyridin-1-yl)butyl)-1,4-benzoxazepin-5-one] | – | – | 89 | 979 | – | 11
8 | CC1=COc2ccccc2C(=O)N1CCCCN1CCC(c2ncccn2)CC1 [Example 54, 4,5-dihydro-3-methyl-4-(4-(4-(2-pyrimidinyl)piperidin-1-yl)butyl)-1,4-benzoxazepin-5-one] | 10 | – | – | – | – | –
9 | CC1=COc2ccc(F)cc2C(=O)N1CCCCN1CC=C(c2ncccn2)CC1 [Example 55, 4,5-dihydro-7-fluoro-3-methyl-4-(4-(4-(2-pyrimidinyl)-1,2,5,6-tetrahydropyridin-1-yl)butyl)-1,4-benzoxazepin-5-one] | – | – | 96 | 1250 | – | 13
10 | O=C1c2ccccc2OC=C(Cl)N1CCCCN1CCC(c2ncccn2)CC1 [Example 57, 3-chloro-4,5-dihydro-4-(4-(4-(2-pyrimidinyl)piperidin-1-yl)butyl)-1,4-benzoxazepin-5-one] | – | 5.81 | 310 | 1800 | – | –
11 | O=C1c2ccc(Cl)cc2OC=C(Cl)N1CCCCN1CC=C(c2ncccn2)CC1 [Example 59, 3,8-dichloro-4,5-dihydro-4-(4-(4-(2-pyrimidinyl)-1,2,5,6-tetrahydropyridin-1-yl)butyl)-1,4-benzoxazepin-5-one] | – | – | 525 | 341 | 1 | 0.65
12 | O=C1c2ccc(Cl)cc2OC=C(Cl)N1CCCCN1CCC(c2ncccn2)CC1 [Example 60, 3,8-dichloro-4,5-dihydro-4-(4-(4-(2-pyrimidinyl)piperidin-1-yl)butyl)-1,4-benzoxazepin-5-one] | – | 1.11 | 1153 | 1280 | 1 | –
13 | COc1ccc2c(c1)OC=C(Cl)N(CCCCN1CC=C(c3ncccn3)CC1)C2=O [Example 61, 3-chloro-4,5-dihydro-8-methoxy-4-(4-(4-(2-pyrimdinyl)-1,2,5,6-tetrahydropyridin-1-yl)butyl)-1,4-benzoxazepin-5-one] | – | – | 376 | 256 | 1 | 0.68
14 | O=C1c2ccc(Cl)cc2OC=C(Cl)N1CCCCN1CC=C(c2ccccn2)CC1 [Example 66, 3,8-dichloro-4,5-dihydro-4-(4-(4-(2-pyridyl)-1,2,5,6-tetrahydropyridin-1-yl)butyl)-1,4-benzoxazepin-5-one] | – | – | 221 | 128 | – | 0.58
15 | O=C1c2ccc(Cl)cc2OC=C(Cl)N1CCCCN1CCC(c2ccccn2)CC1 [Example 67, 3,8-dichloro-4,5-dihydro-4-(4-(4-(2-pyridyl)piperidin-1-yl)butyl)-1,4-benzoxazepin-5-one] | – | 0.44 | 816 | 359 | – | –
16 | CC1=COc2ccc(C)cc2C(=O)N1CCCCN1CC=C(c2ccccn2)CC1 [Example 74, 4,5-dihydro-3,7-dimethyl-4-(4-(4-(2-pyridyl)-1,2,5,6-tetrahydropyridin-1-yl)butyl)-1,4-benzoxazepin-5-one] | – | – | 77 | 338 | – | 4.41
17 | CC1=COc2ccccc2C(=O)N1CCCCN1CC=C(c2ccccn2)CC1 [Example 84, 4,5-dihydro-3-methyl-4-(4-(4-(2-pyridyl)-1,2,5,6-tetrahydropyridin-1-yl)butyl)-1,4-benzoxazepin-5-one] | – | – | – | – | 0.3 | –
